Reference: paper PMC6201879, “N-substituted phenylbenzamides of the niclosamide chemotype attenuate obesity related changes in high fat diet fed mice” (PLoS ONE, 2018)
Where two headings read alike, the source gives them in different places.

Experiments:
[1] = Metabolic stability in human liver microsomes; format: in vitro ADME
Protocol: (§1) Three experiments were performed with 1) 0.5mg/ml microsomes and 1mM NADPH, 2) 0.5mg/ml microsomes without NADPH and 3) 0.5mg/ml heat inactivated microsomes without NADPH in 100mM phosphate buffer, containing 5mM magnesium chloride. […] At the indicated time points, 50μl samples were removed and stopped by addition of 4 volumes of cold acetonitrile with internal standards, 100nM alprazolam, 200nM labetalol and 2μM ketoprofen. The samples were centrifuged at 3,220 g for 40 minutes and aliquots of 100μl were subsequently diluted with 100μl of ultra-pure water and analyzed by LC/MS/MS using a (Shimadzu corporation) LC system coupled to a Shimadzu Triple Quad 5500 mass spectrometer with an ESI interface. The LC system used a Waters XSelect HSS T3 C18, 2.5μm, 2.1 x 50 mm column eluted with one of two methods using mobile phases A (water, 0.1% formic acid) and B (acetonitrile, 0.1% formic acid). […] The Shimadzu Triple Quad 5500 MS was operated with the following parameters: Ion source: Turbo spray; Ionization mode: ESI; Scan type: MRM; Collision gas: 10 L/min; Curtain gas: 30 L/min; Nebulize gas: 50 L/min; Auxiliary gas: 50 L/min; Temperature: 500°C; Ionspray voltage: +5500 V (positive MRM). All experiments were performed in duplicate. Data were analyzed using Microsoft excel, and peak areas were determined from extracted ion chromatograms.

[2] = tested on: Salmonella typhimurium TA100; conditions: for Mean Revertant Colony Counts TA-100 SP9+: with S9; for Mean Revertant Colony Counts TA-100 S9-: without S9
[3] = tested on: HEK293 cells stably transduced with the human OCT3 transporter; assay: Cellular oxygen consumption rate (OCR), MitoXpress Xtra; format: cell-based; conditions: HEK293 cells expressing human OCT3; compared to DMSO control; 2 hours
In short: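 HEK293 cells stably expressing human OCT3, treated with four compound concentrations; oxygen consumption followed by MitoXpress Xtra TR-F lifetime (340/650 nm) every 2 min for 2 h. Lifetime slope from the linear portion taken as OCR; FCCP (1 μM) as stimulated control, differences versus DMSO by t-test.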

[4] = Metabolic stability in mouse liver microsomes; format: in vitro ADME; conditions: 60 min
Protocol: as §1

PH5CH8 liver cells = assay: High-throughput hepatic de novo lipogenesis (DNL) assay, high content imaging of steatotic phenotype; format: cell-based, human; conditions: for IC50: Homo sapiens
[5] = tested on: Salmonella typhimurium TA98; assay: Ames assay, strain TA98; conditions: for Mean Revertant Colony Counts TA98 SP9+: with S9; for Mean Revertant Colony Counts TA98 S9-: without S9
[6] = 0.5mg/ml microsomes and 1mM NADPH
[7] = 0.5mg/ml microsomes without NADPH
[8] = heat inactivated microsomes without NADPH
[9] = any concentration tested, vs negative control

CC(C)(C)c1ccc(O)c(C(=O)Nc2ccc(C(=O)O)cc2Cl)c1 [Compound 500200, 4-[(5-tert-butyl-2-hydroxybenzene)amido]-3-chlorobenzoic acid]
Remaining Percentage of 60 min (%), Human, Tested Sample [1, 6]: 84.5%
Remaining Percentage of 60 min (%), Human, Negative Control [1, 7]: 110.2%
Remaining Percentage of 60 min (%), Human, Heat-inactivated Control [1, 8]: 96.6%
Mean Revertant Colony Counts TA-100 SP9+ ([2]; 1.5 ug/Well): 18.7
Mean Revertant Colony Counts TA-100 S9- ([2]; 1.5 ug/Well): 32.3
Mean Revertant Colony Counts TA-100 SP9+ ([2]; 4 ug/Well): 19.7
Mean Revertant Colony Counts TA-100 S9- ([2]; 4 ug/Well): 25.7
Mean Revertant Colony Counts TA-100 SP9+ ([2]; 10 ug/Well): 22.0
Mean Revertant Colony Counts TA-100 S9- ([2]; 10 ug/Well): 26.7
Mean Revertant Colony Counts TA-100 SP9+ ([2]; 25 ug/Well): 22.0
Mean Revertant Colony Counts TA-100 S9- ([2]; 25 ug/Well): 28.0
Mean Revertant Colony Counts TA-100 SP9+ ([2]; 64 ug/Well): 20.3
Mean Revertant Colony Counts TA-100 S9- ([2]; 64 ug/Well): 26.3
Mean Revertant Colony Counts TA-100 SP9+ ([2]; 160 ug/Well): 27.7
Mean Revertant Colony Counts TA-100 S9- ([2]; 160 ug/Well): 24.0
Mean Revertant Colony Counts TA-100 SP9+ ([2]; 400 ug/Well): 18.3
Mean Revertant Colony Counts TA-100 S9- ([2]; 400 ug/Well): 29.7
Mean Revertant Colony Counts TA-100 SP9+ ([2]; 1000 ug/Well): 8.0
Mean Revertant Colony Counts TA-100 S9- ([2]; 1000 ug/Well): 16.3
fold increase in the mean number of revertant colonies, TA100 [2, 9]: < 2 fold
change in respiration / oxygen consumption rate (OCR) [3]: no change in respiration
Remaining Percentage of 60 min (%), Mouse, Tested Sample [4, 6]: 101.2%
Remaining Percentage of 60 min (%), Mouse, Negative Control [4, 7]: 111.5%
Remaining Percentage of 60 min (%), Mouse, Heat-inactivated Control [4, 8]: 102.7%
IC50 (PH5CH8 liver cells; PH5CH8 liver cells, 10-point dose response between 1μM and 1.9nM, read-out: IC50 (uM), inhibition of steatotic phenotype in DNL assay): 0.27 µM
IC50 (PH5CH8 liver cells; S1 Table, SAR for N-Substituted Phenylbenzamides, read-out: IC50): 0.034 µM
Active/Inactive (PH5CH8 liver cells; S1 Table, SAR for N-Substituted Phenylbenzamides): Active
Mean Revertant Colony Counts TA98 SP9+ ([5]; 1.5 ug/Well): 7.7
Mean Revertant Colony Counts TA98 S9- ([5]; 1.5 ug/Well): 9.0
Mean Revertant Colony Counts TA98 SP9+ ([5]; 4 ug/Well): 6.3
Mean Revertant Colony Counts TA98 S9- ([5]; 4 ug/Well): 12.0
Mean Revertant Colony Counts TA98 SP9+ ([5]; 10 ug/Well): 9.0
Mean Revertant Colony Counts TA98 S9- ([5]; 10 ug/Well): 8.7
Mean Revertant Colony Counts TA98 SP9+ ([5]; 25 ug/Well): 7.3
Mean Revertant Colony Counts TA98 S9- ([5]; 25 ug/Well): 9.0
Mean Revertant Colony Counts TA98 SP9+ ([5]; 64 ug/Well): 9.0
Mean Revertant Colony Counts TA98 S9- ([5]; 64 ug/Well): 7.7
Mean Revertant Colony Counts TA98 SP9+ ([5]; 160 ug/Well): 11.0
Mean Revertant Colony Counts TA98 S9- ([5]; 160 ug/Well): 5.0
Mean Revertant Colony Counts TA98 SP9+ ([5]; 400 ug/Well): 7.0
Mean Revertant Colony Counts TA98 S9- ([5]; 400 ug/Well): 9.7
Mean Revertant Colony Counts TA98 SP9+ ([5]; 1000 ug/Well): 4.3
Mean Revertant Colony Counts TA98 S9- ([5]; 1000 ug/Well): 4.3
fold increase in the mean number of revertant colonies, TA98 [5, 9]: < 2 fold
